The test system of experiment [1] is P5 DIV3 rat spiral ganglia neurons. Put plainly: Rotenone-induced neurite degeneration (neurite beading/blebbing, NF-200 stain) in spiral ganglia neuron culture. It counts as cell-based. As for the experimental part:
Dissociated spiral ganglia neurons were harvested from P5 rats. Briefly, pups were rapidly decapitated, and cochlea were dissected. The modiolus was then dissected and digested (0.1% trypsin, 0.1% collagenase, HBSS−/−) for 45 min at 37° C. Sequential trituration was performed with fire-polished pipets to release cells from the tissue, and cells were transferred to laminin/polylysine-coated 24-well plates. Neurons were incubated overnight in culture media (DMEM high glucose, N2 supplement, 10 μg/ml insulin, 25 μg/ml BDNF, 25 μg/ml NT3). To elicit neurite degeneration, cultures were incubated with rotenone (10 μM) for 2 hr in the presence/absence of 10 mM NAD+.
Spiral ganglia neuron cultures were fixed with 4% paraformaldehyde and permeabilized with 0.5% Triton X-100™/PBS for 10 min. After washing, cells were blocked with 4% donkey serum and incubated with mouse anti-NF200 (1:1000) overnight at 4° C. Neurite beading was then measured using a previously described, unbiased computerized protocol (Sasaki, Y. et al., J. Neuroscience, 29, 5525-5535 (2009)).
Axonal degeneration in a variety of neurons can be blocked by treatment with millimolar concentrations of NAD+ (Avery, M. A., et al., Current Biology, CB 22, 596-600 (2012)). […] This effect was blocked by simultaneous treatment of neurons with 10 mM NAD+. […]

Experiment [2] concerns spiral ganglia neurites / inner hair cells of noise-exposed mice. Put plainly: Retraction of spiral ganglia neurites from inner hair cells after noise exposure (cochlear immunohistology). It is filed as in vivo. As to conditions: basal turn of the cochlea, NR before and after acoustic trauma. As for the experimental part: Mouse cochlea were prepared as described in Whitlon, D. S. et al., Brain Research Protocols, 6, 159-166 (2001). Mouse cochlea were quickly dissected from the temporal bone following rapid decapitation. Once separated, the apex of the cochlea was gently fenestrated, and the cochlea were immediately fixed in 4% paraformaldehyde overnight at 4° C. The cochlea were then washed with three changes of PBS and incubated in a decalcification solution (10% EDTA/PBS pH 7.4) under constant rotation at 4° C. for 1 week. The decalcification solution was changed daily. Cochlea were washed in 3 changes of PBS and then treated with progressively increasing sucrose concentrations from 10-30%. The cochlea were incubated overnight in 30% sucrose at 4° C. The cochlea were incubated an additional 24 hr in OCT compound (Tissue-Tek). […]
Noise-induced hearing loss is associated with retraction of spiral ganglia neurites from the inner hair cells. As the most prominent hearing losses are seen in the portion of the auditory spectrum that contains the highest audible frequencies, the basal turn of the cochlea where this portion of the auditory spectrum is detected was focused on. […] Immunofluorescence labeling of the cochlea can readily show whether spiral ganglia neurites are forming their proper contacts with the base of inner hair cells. […]

For experiment [3], the system named is noise-exposed C57BL6 mice. Put plainly: Auditory brainstem response (ABR) testing of noise-induced hearing loss after 90 dB octave band noise exposure for 2 hr. On the set-up: Avg. hearing loss: unit not given here. As to conditions: for transient threshold shift: 24 hours after noise exposure. It is filed as in vivo. As for the experimental part:
Auditory brainstem response testing was performed as previously described (Willott, J. F., Current Protocols in Neuroscience, 8.21B, B1-B12 (2005). Animals were tested following sedation with ketamine and xylazine (40 mg/kg and 10 mg/kg, respectively). Tone burst stimuli at 8, 16, and 32 kHz for 0.5 msec were used to elicit auditory evoked responses using an auditory brainstem recording system (Intelligent Hearing Systems, Miami, Fla.). An evoked response was determined by identifying waveforms at proper time intervals that increased in magnitude with increasing volume as described previously by Willott.
Animals were exposed to a 90 dB octave band for 2 hr in a cage placed in a soundproof chamber (MAC-2, Industrial Acoustics Company, Bronx N.Y.). The mice were able to freely move throughout the cage. The octave band was generated using ToneGen software (NCH software, Greenwood Village, Colo.) routed through an Audiosource Amp100 amplifier driving two down-facing Fostex FT-96H speakers. The sound pressure level was confirmed at 0, 30, 60, and 90 min, and again just prior to completion of sound exposure using an Extech microphone 407736.
To test whether augmented NAD biosynthesis protects from noise-induced hearing loss, auditory brainstem responses (ABR) elicited by tone burst stimuli after acoustic trauma was measured. An ABR occurs when a mouse hears the tone burst stimulus. In these experiments, acoustic trauma was elicited in mice by a 90 dB octave band noise exposure for 120 min. To quantify the degree of hearing loss, “threshold shifts” were measured. These shifts refer to the increased level of sound intensity that is required to elicit an ABR. The threshold for detecting sound stimuli is determined by exposing mice to 0.5 msec tone bursts at a specific frequency and volume. […] Transient threshold shifts (TTS) refer to a temporary hearing loss 24 hours after noise exposure, and permanent threshold shifts (PTS) refer to hearing loss that remains 2 weeks after exposure.
(§1) Nicotinamide riboside (NR) is a well-tolerated precursor of NAD+. In these experiments, NR was administered by intraperitoneal injection twice daily at 1000 mg/kg, a dose which increases tissue NAD levels by 50%, either for 5 days prior to noise exposure and 14 days after noise exposure (NR Before+ After), 5 days prior to noise exposure (NR Before), or 14 days after noise exposure (NR After). […] The hearing loss at 8000 Hz, […], and 32,000 Hz is set forth in the Table and is depicted graphically in FIGS. 4A-4C, respectively.

For experiment [4], the system named is tissue NAD levels. Put plainly: Tissue NAD levels after intraperitoneal NR. It counts as in vivo. As to conditions: intraperitoneal injection twice daily at 1000 mg/kg. As for the experimental part: as §1

In the case of `NC(=O)c1ccc[n+]([C@@H]2O[C@H](COP(=O)([O-])OP(=O)(O)OC[C@H]3O[C@@H](n4cnc5c(N)ncnc54)[C@H](O)[C@@H]3O)[C@@H](O)[C@H]2O)c1` [NAD+], the “effect on rotenone-induced neurite degeneration” value in experiment [1] (simultaneous treatment with 10 mM NAD+ and 10 μM rotenone, 2 hr) is given as “blocked”.
With `C=C(C)[C@H]1Cc2c(ccc3c2O[C@@H]2COc4cc(OC)c(OC)cc4[C@@H]2C3=O)O1` [rotenone], the “neurite degeneration, as measured by the presence of neurite blebbing” value in experiment [1] (10 μM rotenone, in as early as 2 hr) is “resulted in neurite degeneration”.
As for `NC(=O)c1ccc[n+]([C@@H]2O[C@H](CO)[C@@H](O)[C@H]2O)c1` [NR, Nicotinamide riboside], the “neurite retraction (distance of spiral ganglia neurites from inner hair cells)” value in experiment [2] (24 hr after noise exposure) is 4.3±4.5 μm; in experiment [2] (14 d after noise exposure), 2.5±3.5 μm. For the same molecule, the transient threshold shift is listed as 6 dB in experiment [3] (8000 Hz, NR i.p. twice daily 1000 mg/kg); 8 dB in experiment [3] (16,000 Hz, NR i.p. twice daily 1000 mg/kg); 16 dB in experiment [3] (32,000 Hz, NR i.p. twice daily 1000 mg/kg). Besides, the Avg. hearing loss in experiment [3] (NR after (i.p. twice daily 1000 mg/kg, 14 days after noise), Baseline, 8 kHz) is 14; in experiment [3] (NR after, 1 wk post noise, 8 kHz), 17; in experiment [3] (NR after, 1 wk post noise, 32 kHz), 28; in experiment [3] (NR after, 2 wks post noise, 8 kHz), 18; in experiment [3] (NR after, 2 wks post noise, 16 kHz), 15; in experiment [3] (NR after, 2 wks post noise, 32 kHz) it was 28. Also, the Avg. hearing loss in experiment [3] (NR after, 24 h post noise, 8 kHz) turned out to be 23; in experiment [3] (NR after, 24 h post noise, 16 kHz) it was 23; in experiment [3] (NR after, 24 h post noise, 32 kHz), 37; in experiment [3] (NR after, Baseline, 16 kHz), 19; in experiment [3] (NR after, Baseline, 32 kHz), 31; in experiment [3] (NR after, Pre-noise, 8 kHz), 14. The Avg. hearing loss in experiment [3] (NR after, Pre-noise, 16 kHz) amounted to 21; in experiment [3] (NR after, Pre-noise, 32 kHz), 16; in experiment [3] (NR before (i.p. twice daily 1000 mg/kg, 5 days prior to noise), Baseline, 8 kHz), 14; in experiment [3] (NR before and after (i.p. twice daily 1000 mg/kg, 5 days prior to and 14 days after noise), Baseline, 8 kHz), 16; in experiment [3] (NR before and after, 1 wk post noise, 8 kHz), 15; in experiment [3] (NR before and after, 1 wk post noise, 16 kHz), 25. The Avg. hearing loss in experiment [3] (NR before and after, 1 wk post noise, 32 kHz) is 40; in experiment [3] (NR before and after, 2 wks post noise, 8 kHz), 20; in experiment [3] (NR before and after, 2 wks post noise, 16 kHz) it was 20; in experiment [3] (NR before and after, 2 wks post noise, 32 kHz) it was 20; in experiment [3] (NR before and after, 24 h post noise, 8 kHz), 22; in experiment [3] (NR before and after, 24 h post noise, 16 kHz), 26. Also, the Avg. hearing loss was found to be 44 in experiment [3] (NR before and after, 24 h post noise, 32 kHz); 13 in experiment [3] (NR before and after, Baseline, 16 kHz); 19 in experiment [3] (NR before and after, Baseline, 32 kHz); 16 in experiment [3] (NR before and after, Pre-noise, 8 kHz); 18 in experiment [3] (NR before and after, Pre-noise, 16 kHz); 28 in experiment [3] (NR before and after, Pre-noise, 32 kHz). The Avg. hearing loss in experiment [3] (NR before, 1 wk post noise, 8 kHz) came out at 15; in experiment [3] (NR before, 1 wk post noise, 16 kHz), 23; in experiment [3] (NR before, 1 wk post noise, 32 kHz), 23; in experiment [3] (NR before, 2 wks post noise, 8 kHz) it was 18; in experiment [3] (NR before, 2 wks post noise, 16 kHz) it was 18; in experiment [3] (NR before, 2 wks post noise, 32 kHz) it was 23. Also, the Avg. hearing loss is reported as 18 in experiment [3] (NR before, 24 h post noise, 8 kHz); 25 in experiment [3] (NR before, 24 h post noise, 16 kHz); 38 in experiment [3] (NR before, 24 h post noise, 32 kHz); 16 in experiment [3] (NR before, Baseline, 16 kHz); 21 in experiment [3] (NR before, Baseline, 32 kHz); 13 in experiment [3] (NR before, Pre-noise, 8 kHz). The Avg. hearing loss was 18 in experiment [3] (NR before, Pre-noise, 16 kHz) and 17 in experiment [3] (NR before, Pre-noise, 32 kHz). In addition, the “protection from permanent hearing loss” value in experiment [3] (all 3 frequencies (8000, 16,000, 32,000 Hz), NR i.p. twice daily 1000 mg/kg) was “similarly protected”. In addition, the “increase of tissue NAD levels” value in experiment [4] came to 50%.
